Experimental data as given in PubChem BioAssay AID334 (DTP/NCI, 2004).
Where “and” joins values, the source holds several entries; their conditions need not be identical. Equal entries are not always repeated. Inconclusive results and toxic doses are left out.

Test system: CD2F1 mice, intracerebral P388 leukemia, median survival T/C%
Assay: NCI In Vivo Anticancer Drug Screen. Data for tumor model P388 Leukemia (intracerebral) in CD2F1 (CDF1) mice
Details: endpoint: median survival time, higher = longer survival
Experimental: The antitumor activity of compounds was measured in mice bearing transplantable tumors. Survival or tumor size were measured and the results are expressed as the measurement made in the treated group (T) divided by the measurement made in the vehicle treated control group (C). The tumor model used in this assay is P388 Leukemia (intracerebral) in CD2F1 (CDF1) mice

[1] = dose: 2.0 mg/kg/injection, schedule: Q01DX009 (ip), vehicle: saline
[2] = dose: 4.0 mg/kg/injection, schedule: Q01DX009 (ip), vehicle: saline
[3] = dose: 8.0 mg/kg/injection, schedule: Q01DX009 (ip), vehicle: Klucel (hydroxypropylcellulose) (HPC)
[4] = dose: 8.0 mg/kg/injection, schedule: Q01DX009 (ip), vehicle: saline with Tween-80
[5] = dose: 16.0 mg/kg/injection, schedule: Q01DX009 (ip), vehicle: Klucel (hydroxypropylcellulose) (HPC)
[6] = dose: 16.0 mg/kg/injection, schedule: Q01DX009 (ip), vehicle: saline with Tween-80
[7] = dose: 32.0 mg/kg/injection, schedule: Q01DX009 (ip), vehicle: Klucel (hydroxypropylcellulose) (HPC)
[8] = dose: 32.0 mg/kg/injection, schedule: Q01DX009 (ip), vehicle: saline with Tween-80
[9] = dose: 64.0 mg/kg/injection, schedule: Q01DX009 (ip), vehicle: Klucel (hydroxypropylcellulose) (HPC)
[10] = dose: 64.0 mg/kg/injection, schedule: Q01DX009 (ip), vehicle: saline with Tween-80
[11] = dose: 128.0 mg/kg/injection, schedule: Q01DX009 (ip), vehicle: Klucel (hydroxypropylcellulose) (HPC)
[12] = dose: 128.0 mg/kg/injection, schedule: Q01DX009 (ip), vehicle: saline with Tween-80
[13] = dose: 256.0 mg/kg/injection, schedule: Q01DX009 (ip), vehicle: saline with Tween-80
[14] = dose: 256.0 mg/kg/injection, schedule: Q01DX009 (ip), vehicle: Klucel (hydroxypropylcellulose) (HPC)
[15] = dose: 512.0 mg/kg/injection, schedule: Q01DX009 (ip), vehicle: Klucel (hydroxypropylcellulose) (HPC)
[16] = dose: 12.5 mg/kg/injection, schedule: Q01DX009 (ip), vehicle: saline with Tween-80
[17] = dose: 25.0 mg/kg/injection, schedule: Q01DX009 (ip), vehicle: saline with Tween-80
[18] = dose: 50.0 mg/kg/injection, schedule: Q01DX009 (ip), vehicle: saline with Tween-80
[19] = dose: 50.0 mg/kg/injection, schedule: Q04DX003 (ip), vehicle: saline
[20] = dose: 100.0 mg/kg/injection, schedule: Q04DX003 (ip), vehicle: saline
[21] = dose: 200.0 mg/kg/injection, schedule: Q04DX003 (ip), vehicle: saline
[22] = dose: 400.0 mg/kg/injection, schedule: Q04DX003 (ip), vehicle: saline
[23] = dose: 12.5 mg/kg/injection, schedule: Q01DX009 (ip), vehicle: saline
[24] = dose: 25.0 mg/kg/injection, schedule: Q01DX009 (ip), vehicle: saline
[25] = dose: 50.0 mg/kg/injection, schedule: Q01DX009 (ip), vehicle: saline
[26] = dose: 100.0 mg/kg/injection, schedule: Q01DX009 (ip), vehicle: saline
[27] = dose: 200.0 mg/kg/injection, schedule: Q01DX009 (ip), vehicle: saline

`COc1cc([C@@H]2c3cc4c(cc3[C@@H](OC3OC5CO[C@@H](c6cccs6)OC5C(O)C3O)[C@H]3COC(=O)[C@H]23)OCO4)cc(OC)c1O` (stereo not given in full) was tested, and the T/C (dose: 0.25 mg/kg/injection, schedule: Q01DX009 (ip), vehicle: saline) was 108 % of control, the T/C (dose: 0.5 mg/kg/injection, schedule: Q01DX009 (ip), vehicle: saline) was 116 % of control and the T/C [1] was 152 % of control. For the same compound, the T/C [2] was 119 % of control.

For `C[n+]1c2ccccc2nc2c(N)cc(N)cc21`, the T/C (dose: 4.0 mg/kg/injection, schedule: Q01DX005 (ip), vehicle: suspension in saline) was 114 % of control and 97 % of control, the T/C (dose: 8.0 mg/kg/injection, schedule: Q01DX005 (ip), vehicle: suspension in saline) was 94 % of control and 103 % of control and the T/C (dose: 16.0 mg/kg/injection, schedule: Q01DX005 (ip), vehicle: suspension in saline) was 104 % of control and 106 % of control. For the same compound, the T/C (dose: 32.0 mg/kg/injection, schedule: Q01DX005 (ip), vehicle: suspension in saline) was 102 % of control and 108 % of control.

For `C[C@]12C=CC(=O)C=C1CC[C@@H]1[C@@H]2CC[C@]2(C)OC(=O)CC[C@@H]12`, the T/C [3] was 105 % of control and 111 % of control, the T/C [4] was 95 % of control and 105 % of control and the T/C [5] was 100 % of control and 103 % of control. For the same compound, the T/C [6] was 104 % of control and 105 % of control, the T/C [7] was 114 % of control and 102 % of control and the T/C [8] was 97 % of control and 104 % of control. For the same compound, the T/C [9] was 100 % of control and 105 % of control, the T/C [10] was 97 % of control and the T/C [11] was 91 % of control and 111 % of control. For the same compound, the T/C [12] was 104 % of control and 112 % of control and the T/C [13] was 121 % of control and 94 % of control.

`CO[C@H]1C[C@@H]2CC[C@@H](C)[C@@](O)(O2)C(=O)C(=O)N2CCCC[C@H]2C(=O)O[C@H]([C@H](C)C[C@@H]2CC[C@@H](O)[C@H](OC)C2)CC(=O)[C@H](C)C=C(C)[C@@H](O)[C@@H](OC)C(=O)[C@H](C)C[C@H](C)/C=C/C=C/C=C1C` was tested, and the T/C (dose: 400.0 mg/kg/injection, schedule: Q01DX009 (ip), vehicle: gum acacia) was 107 % of control.

In the case of `CCCCCC(=O)O[C@]1(C(C)=O)CC[C@H]2[C@@H]3CCC4=CC(=O)CC[C@]4(C)[C@H]3CC[C@@]21C`, the T/C [3] is reported as 118 % of control and 105 % of control, the T/C [4] is reported as 535 % of control and the T/C [5] is reported as 100 % of control and 111 % of control. The T/C [6] was 100 % of control, the T/C [7] was 118 % of control and 105 % of control and the T/C [8] was 98 % of control. The T/C [9] was 102 % of control and 111 % of control, the T/C [11] was 121 % of control and 100 % of control and the T/C [12] was 107 % of control. The T/C [14] was 120 % of control and 110 % of control, the T/C [13] was 98 % of control and the T/C [15] was 124 % of control and 105 % of control. For the same compound, the T/C (dose: 512.0 mg/kg/injection, schedule: Q01DX009 (ip), vehicle: saline with Tween-80) was 279 % of control.

`Cc1cc(NC(=O)NCc2ccc(N3C(N)=NC(N)=NC3(C)C)cc2)ccc1S(=O)(=O)F` was tested, and the T/C [16] was 105 % of control, the T/C [17] was 105 % of control and the T/C (dose: 25.0 mg/kg/injection, schedule: Q04DX003 (ip), vehicle: saline with Tween-80) was 111 % of control. For the same compound, the T/C (dose: 25.0 mg/kg/injection, schedule: Q04DX003 (ip), vehicle: saline) was 105 % of control, the T/C [18] was 97 % of control and the T/C (dose: 50.0 mg/kg/injection, schedule: Q04DX003 (ip), vehicle: saline with Tween-80) was 101 % of control. The T/C [19] was 100 % of control, the T/C (dose: 100.0 mg/kg/injection, schedule: Q04DX003 (ip), vehicle: saline with Tween-80) was 90 % of control and the T/C [20] was 111 % of control. The T/C (dose: 200.0 mg/kg/injection, schedule: Q04DX003 (ip), vehicle: saline with Tween-80) was 116 % of control, the T/C [21] was 111 % of control and the T/C [22] was 105 % of control.

With `N[C@@H](Cc1ccc(N(CCCl)CCCl)cc1)C(=O)O` the T/C (dose: 0.25 mg/kg/injection, schedule: Q03HX008 (ip), vehicle: saline) was 105 % of control and the T/C (dose: 0.5 mg/kg/injection, schedule: Q03HX008 (ip), vehicle: saline) was 115 % of control.

For `O=C1C=CN(C2OC(CO)C(O)C2O)C(=O)C1` (stereo not given), the T/C [23] was 112 % of control, the T/C [24] was 106 % of control and the T/C [25] was 104 % of control. The T/C [26] was 106 % of control, the T/C [27] was 94 % of control and the T/C (dose: 400.0 mg/kg/injection, schedule: Q01DX009 (ip), vehicle: saline) was 94 % of control.

`N=C(N)SCc1c2ccccc2c(CSC(=N)N)c2ccccc12` was tested, and the T/C (dose: 2.5 mg/kg/injection, schedule: Q01DX005 (ip), vehicle: Klucel (hydroxypropylcellulose) (HPC)) was 93 % of control and 96 % of control, the T/C (dose: 5.0 mg/kg/injection, schedule: Q01DX005 (ip), vehicle: Klucel (hydroxypropylcellulose) (HPC)) was 97 % of control and 104 % of control and the T/C (dose: 10.0 mg/kg/injection, schedule: Q01DX005 (ip), vehicle: Klucel (hydroxypropylcellulose) (HPC)) was 97 % of control and 101 % of control. The T/C (dose: 20.0 mg/kg/injection, schedule: Q01DX005 (ip), vehicle: Klucel (hydroxypropylcellulose) (HPC)) was 96 % of control and 104 % of control.

In the case of `C[C@]12C=CC(=O)C=C1CC[C@@H]1[C@@H]2C(=O)C[C@@]2(C)[C@H]1CC[C@]2(O)C(=O)CO`, the T/C [3] is reported as 95 % of control and 99 % of control, the T/C [5] is reported as 100 % of control and 104 % of control and the T/C [7] is reported as 98 % of control and 102 % of control. For the same compound, the T/C [9] was 99 % of control and 104 % of control, the T/C [11] was 95 % of control and 102 % of control and the T/C [14] was 102 % of control and 104 % of control. For the same compound, the T/C [15] was 95 % of control and 99 % of control.

In the case of `CC1(C)N=C(N)N=C(N)N1c1ccc(OCc2ccc(C(=O)Nc3cccc(S(=O)(=O)F)c3)cc2)c(Cl)c1`, the T/C [19] is reported as 100 % of control, the T/C [20] is reported as 94 % of control and the T/C [21] is reported as 105 % of control. The T/C [22] was 88 % of control.

For `CC(=O)OCC1C(=O)OCC1C(=O)N1Cc2cc3ccccc3nc2C1` (stereo not given), the T/C (dose: 4.0 mg/kg/injection, schedule: Q01DX009 (ip), vehicle: saline with Tween-80) was 101 % of control, the T/C [4] was 103 % of control and the T/C [6] was 96 % of control. The T/C [8] was 107 % of control, the T/C [10] was 102 % of control and the T/C [12] was 96 % of control.

For `Nc1ccc2nc3ccc(N)cc3[n+](-c3ccccc3)c2c1`, the T/C (dose: 1.0 mg/kg/injection, schedule: Q01DX009 (ip), vehicle: saline) was 89 % of control, the T/C [1] was 87 % of control and the T/C [2] was 99 % of control. For the same compound, the T/C (dose: 8.0 mg/kg/injection, schedule: Q01DX009 (ip), vehicle: saline) was 99 % of control.

`NC(=O)c1csc(C2OC(CO)C(O)C2O)n1` (stereo not given) was tested, and the T/C [23] was 105 % of control, the T/C [24] was 121 % of control and the T/C [25] was 110 % of control. The T/C [26] was 119 % of control, the T/C [27] was 121 % of control and the T/C (dose: 800.0 mg/kg/injection, schedule: Q01DX009 (ip), vehicle: saline) was 93 % of control.

With `CCN(C)N=Nc1ccc(C(N)=O)cc1` the T/C (dose: 25.0 mg/kg/injection, schedule: Q01DX009 (ip), vehicle: Klucel (hydroxypropylcellulose) (HPC)) was 101 % of control and the T/C (dose: 100.0 mg/kg/injection, schedule: Q01DX009 (ip), vehicle: Klucel (hydroxypropylcellulose) (HPC)) was 154 % of control.

In the case of `Cc1cnc(/C=N\NC(N)=S)c2cccc(N)c12`, the T/C [16] is reported as 99 % of control, the T/C [17] is reported as 102 % of control and the T/C [18] is reported as 104 % of control. For the same compound, the T/C (dose: 100.0 mg/kg/injection, schedule: Q01DX009 (ip), vehicle: saline with Tween-80) was 98 % of control.

`O=P1(NCCCl)OCCCN1CCCl` (stereo not given) was tested, and the T/C (dose: 538.0 mg/kg/injection, schedule: Q01DX001 (ip), vehicle: saline) was 153 % of control.

With `CCN(CC)CCCC(C)Nc1c2ccc(Cl)cc2nc2ccc(OC)cc12` (stereo not given) the T/C (dose: 8.0 mg/kg/injection, schedule: Q01DX009 (ip), vehicle: suspension in saline) was 96 % of control, the T/C (dose: 16.0 mg/kg/injection, schedule: Q01DX009 (ip), vehicle: suspension in saline) was 96 % of control and the T/C (dose: 32.0 mg/kg/injection, schedule: Q01DX009 (ip), vehicle: suspension in saline) was 100 % of control. The T/C (dose: 64.0 mg/kg/injection, schedule: Q01DX009 (ip), vehicle: suspension in saline) was 88 % of control.
